In PMC7076440, “New Preclinical Development of a c-Met Inhibitor and Its Combined Anti-Tumor Effect in c-Met-Amplified NSCLC” (Pharmaceutics, 2020):
Converted amounts (≈) assume the structure as drawn.

Assays:
Format in all cases: physicochemical
[1] = log D / log P, octanol/water
Protocol: ABN401 solution (10 μg/mL) was mixed with octanol at a ratio of 1:1 in a glass vial and placed horizontally in a Digital Bio Rotator (SeoLin Bioscience, Seongnam, Korea), and shaken at a constant 90 rpm for 24 h. After 6 h of equilibrium under room temperature, two phases of water and octanol were separated using a separating funnel. The experiment was repeated five times. The concentration of ABN401 at each phase was analyzed by HPLC and log P and log D were calculated using the Henderson-Hasselbalch equation below with the previously determined pKa value. (4) logDbases =logP+log⎣1/(1+ 10^pKa−pH)⎦

[2] = Equilibrium solubility at different pHs and excipients by HPLC; details: thermodynamic from solid
Protocol: (§1) Solutions at pH values of 1 to 12 were prepared using HCl and NaOH. At first, 10^−1 N, 10^−2 N, 10^−3 N, 10^−4 N, 10^−5 N, and 10^−6 N of HCl and NaOH solutions were prepared and their pH values were measured with a pH meter (Metrohm 827 pH lab, Zurich, Switzerland). One milliliter of the 10^−4 N, 10^−5 N, and 10^−6 N of HCl and NaOH solutions was withdrawn and diluted in a 100 mL flask for more coordination. In each prepared solution (n = 3), excess ABN401 was dissolved and mixed for 24 h. All samples were centrifuged for 1 min at 12,000 rpm. The pH solubility of ABN401 was analyzed by HPLC and the pKa was determined by plotting a graph of log(solubility) against pH.
(§2) An HPLC system (Shimadzu LC-20, Shimadzu, Kyoto, Japan) was used to analyze the solubility, dissolution profile, and degradation products as well as to determine the storage stability of ABN401. The wavelength of the UV detector was set at 282 nm. For quantification analysis, the Agilent Eclipse Plus C18 (5 μm, 4.6 × 150 mm) (Agilent technologies, Santa Clara, CA, USA) was used and maintained at 30 °C. The mobile phase was a mixture of acetonitrile and 50 mM acetate buffer at pH 5.0 at a volume ratio of 50 to 50 (v/v %). The flow rate of the mobile phase was 0.5 mL/min and the injection volume was 10 μL. A Kromasil C8 (5 μm, 4.6 × 250 mm) column was used for qualification analysis to observe the impurity profile during the storage stability test. The following gradient was applied: 0–20 min, 80% acetonitrile and 20% acetate buffer to 20% acetonitrile and 80% acetate buffer, maintained up to 25 min; 25– 28 min, back to 80% acetonitrile and 20% acetate buffer, maintained up to 35 min. The flow rate of the mobile phase was 1 mL/min and the injection volume was 10 μL.
The solubility of ABN401 in two different acidic buffers (i.e., acetate and citrate) were analyzed at three different pH values: 4.0, 4.5, and 5.0 (Table 2). […] Different concentrations of PEG400, cremophor EL, and polysorbate 80 were also evaluated as co-solvents to ABN401 in 0.1 M acetate buffer at pH 4.0 to investigate the solubility enhancement. […] Therefore, 20% PEG400 in 0.1 M sodium acetate was selected as an oral gavage formulation and intravenous solution for in vivo studies. A short storage stability test was performed for 8 days in a cold chamber to determine the concentration recovery yields at low and high concentrations, which were 0.03 mg/mL and 133 mg/mL, respectively. […] As a result, pH 4.0 yielded the highest percentage recovery in both low and high concentrations (Table 3).

[3] = Dissolution test, USP Apparatus 2; details: for time to reach 100% release: 50 and 200 mg
Protocol: A dissolution test was carried out according to USP 36 Apparatus 2 (paddle method) at 100 rpm using 900 mL of dissolution medium maintained at 37 ± 0.5 °C (Varian 705 DS; Varian, Cary, NC, USA). Each capsule was enclosed in a stationary sinker (20 × 12 mm) to prevent the capsule from floating on the surface of the dissolution medium or sticking to the inner surface of the dissolution vessels (n = 4). The drug content was analyzed with an HPLC system using samples collected in Eppendorf tubes and centrifuged for 1 min.

[4] = Six-month accelerated storage stability (HPLC); details: for decrease in the main peak: closed HDPE container
Protocol: as §2
After understanding the degradative factors for ABN401 (i.e., light and oxidation), accelerated storage stability is further evaluated for 6 months at different temperatures (i.e., less than 0 °C, 4 °C, 25 °C, and 40 °C; Figure 3) in a closed system. Seven peaks including the main peak and impurities were evaluated using qualitative HPLC method (Figure 2b). […] In addition, peak 1 increased from 0.08% to 0.19%. These changes in peaks 1, 2, and 3 were more distinguishable when the storage temperature increased to 40 °C. […] On the other hand, the total loss of ABN401 in all four conditions was only around 1.2%–3.1%.

[5] = pH solubility and pKa determination; details: for solubility at 24 h: aqueous HCl/NaOH solution, aqueous buffer, thermodynamic from solid
Protocol: as §1

[6] = Polymorph stability by PXRD; details: 40 °C/75% RH, 1 month open container and 3 months closed container
Protocol: PXRD patterns were measured at room temperature using a D8 Advance with a DAVINCI X-ray diffractometer (Bruker AXS GmbH, Karlsruhe, Germany) equipped with a Ni-filtered Cu-Kα radiation (λ = 1.54056 Å) and a high speed LynxEye detector. The powder samples were loaded onto a quartz holder and scanned over a range of 4–40° at a scanning rate of 6°/min.
The polymorphism of ABN401 was also investigated with physical stresses by heat and humidity.

CN1CCN(Cc2ccc(-c3cnc(N4CCOC(Cn5nnc6ncc(-c7cnn(C)c7)nc65)C4)nc3)cc2)CC1 (stereo not drawn) [ABN401]
logD ([1]; average ± SD of five runs): 1.41 ± 0.08
logP at 24 h ([1]; average ± SD of five runs): 2.46 ± 0.04
logD ([1]; pH 6.4, run 3, pH 6.40): 1.37
logP at 24 h ([1]; run 1, from log D and pKa (Henderson-Hasselbalch)): 2.41
logD ([1]; run 1, pH 6.41): 1.3
logP at 24 h ([1]; run 2, from log D and pKa): 2.43
logD ([1]; run 2, pH 6.59): 1.48
logP at 24 h ([1]; run 3, from log D and pKa): 2.5
logP at 24 h ([1]; run 4, from log D and pKa): 2.51
logD ([1]; run 4, pH 6.49): 1.47
logP at 24 h ([1]; run 5, from log D and pKa): 2.45
logD ([1]; run 5, pH 6.53): 1.45
solubility at 24 h ([2]; 20% PEG 400 in 0.1 M acetate buffer, aqueous with cosolvent or surfactant or cyclodextrin, PEG 400 (20 %), co-solvent in 0.1 M acetate buffer pH 4.0): 8010 µg/mL (≈ 14.1 mM)
solubility at 24 h ([2]; 40% PEG 400 in 0.1 M acetate buffer, aqueous with cosolvent or surfactant or cyclodextrin, PEG 400 (40 %), co-solvent in 0.1 M acetate buffer pH 4.0): 8800 µg/mL (≈ 15.5 mM)
solubility at 24 h ([2]; 60% PEG 400 in 0.1 M acetate buffer, aqueous with cosolvent or surfactant or cyclodextrin, PEG 400 (60 %), co-solvent in 0.1 M acetate buffer pH 4.0): 9480 µg/mL (≈ 16.7 mM)
solubility at 24 h ([2]; 80% PEG 400 in 0.1 M acetate buffer, aqueous with cosolvent or surfactant or cyclodextrin, PEG 400 (80 %), co-solvent in 0.1 M acetate buffer pH 4.0): 12600 µg/mL (≈ 22.1 mM)
solubility at 24 h ([2]; aqueous buffer, 0.1 M acetate buffer (pH 4.0)): 7140 µg/mL (≈ 12.6 mM)
solubility at 24 h ([2]; aqueous buffer, 0.1 M acetate buffer (pH 4.5)): 2290 µg/mL (≈ 4.04 mM)
solubility at 24 h ([2]; aqueous buffer, 0.1 M acetate buffer (pH 5.0)): 560 µg/mL (≈ 0.988 mM)
solubility at 24 h ([2]; aqueous buffer, 0.1 M citrate buffer (pH 4.0)): 60 µg/mL (≈ 0.106 mM)
solubility at 24 h ([2]; aqueous buffer, 0.1 M citrate buffer (pH 4.5)): 30 µg/mL (≈ 0.0529 mM)
solubility at 24 h ([2]; aqueous buffer, 0.1 M citrate buffer (pH 5.0)): 20 µg/mL (≈ 0.0353 mM)
solubility at 24 h ([2]; aqueous buffer, 1× PBS (pH 7.4)): 10 µg/mL (≈ 0.0176 mM)
solubility at 24 h ([2]; hydrochloric acid solution, aqueous buffer, Hydrochloric (pH 2.5)): 26000 µg/mL (≈ 45.8 mM)
solubility at 24 h ([2]; hydrochloric acid solution, aqueous buffer, Hydrochloric (pH 5.0)): 3920 µg/mL (≈ 6.92 mM)
solubility at 24 h ([2]; organic solvent or mixture, Cremophor EL (100 %)): 14100 µg/mL (≈ 24.9 mM)
solubility at 24 h ([2]; organic solvent or mixture, PEG 400 (100 %)): 15500 µg/mL (≈ 27.3 mM)
solubility at 24 h ([2]; organic solvent or mixture, Polysorbate 80 (100 %)): 8460 µg/mL (≈ 14.9 mM)
dissolved in less than 45 min ([3]; 50 mg physical blend capsules with and without excipients (starch, MCC), pH 1.2 medium): above 85%
time to reach 100% release ([3]; high shear granulated blend in capsule): ≤ 60 min
time to reach 100% release ([3]; optimized granulation blend in capsule, pH 1.2 medium): ≤ 30 min
decrease in the main peak ([4]; 6 months, 0 °C (frozen) and 4 °C): < 0.5%
decrease in the main peak ([4]; 6 months, 25 °C): > 0.5%
main peak remaining ([4]; 6 months, all conditions): around 98%
purity remaining ([4]; after 6 months accelerated storage): over 97%
pKa at 24 h ([5]; aqueous HCl and NaOH solutions, pH 1 to 12, from plot of log(solubility) against pH, read-out: apparent pKa): 7.49
solubility at 24 h ([5]; above neutral pH): ≤ 10 µg/mL
solubility at 24 h ([5]; pH 2.28 (highest)): 26900 µg/mL (≈ 47.4 mM)
change in polymorph [6]: no change in its polymorph
